According to patent publication US6740306B2, “Imidazotriazinone-containing compositions for nasal administration” (Bayer Aktiengesellschaft, priority 2002, dated 2004):
“Also recorded” adds a separate entry of the source.

Assay: Benzyl alcohol as additive on nasal administration of cGMP PDE inhibitors
Assay type: in vivo

OCc1ccccc1 [benzyl alcohol]
Ability to reduce or prevent the disadvantages occurring on nasal administration of cGMP PDE inhibitors: unable to reduce or prevent the disadvantages; also recorded: unsuitable for overcoming the disadvantages
Local irritation of the nasal mucosa: led to local irritation of the nasal mucosa
